Source: PubChem BioAssay (NCI)
Values joined by “and” are separate entries in the source; they are usually repeats but may differ in a detail not shown here. Equal values may be shown once.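 48-hour exposure; five concentrations; linearly interpolated endpoints. Abbreviation: GI50, concentration required for 50% inhibition of growth. The concentration for full growth arrest is given as TGI.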

Tests used:
Assay in all cases: DTP human tumour cell line panel, 48 h
[1] = test system: NCI-H460 lung
[2] = test system: TK-10 renal
[3] = test system: KM20L2 colon
[4] = test system: DLD-1 colon
[5] = test system: LOX IMVI melanoma
[6] = test system: SF-295 CNS
[7] = test system: DMS 114 small cell lung
[8] = test system: LXFL 529 NSCLC
[9] = test system: A549 NSCLC
[10] = test system: NCI-H522 lung
[11] = test system: MCF7 breast
[12] = test system: BT-549 breast

| Compound | TGI [1] | TGI [2] | TGI [3] | TGI [4] | TGI [5] | TGI [6] | TGI [7] | TGI [8] | TGI [9] | TGI [10] | GI50 [10] | TGI [11] | TGI [12] |
| --- | --- | --- | --- | --- | --- | --- | --- | --- | --- | --- | --- | --- | --- |
| COc1ccccc1NC(=O)C1=C(C)NC(C)=C(C(=O)Nc2ccccc2OC)C1c1cccc2ccccc12 | > 100 µM | > 100 µM | > 100 µM | > 100 µM | > 100 µM | > 100 µM | > 100 µM | > 100 µM | > 100 µM |  |  |  |  |
| O=C1c2cccc3c(Cl)ccc(c23)C(=O)N1CCCN1CCN(CCCN2C(=O)c3cccc4c(Cl)ccc(c34)C2=O)CC1 | > 100 µM | > 100 µM | > 100 µM | > 100 µM | > 100 µM | > 100 µM | > 100 µM | > 100 µM | > 100 µM |  |  |  |  |
| Cc1cccc(C(C)C)c1NC(=O)CCl | > 100 µM |  | > 100 µM | > 100 µM | > 100 µM | > 100 µM | 50 µM | > 100 µM | > 100 µM | 30 µM |  |  |  |
| CC(C)CN1CC(C)C(=O)NC1=O (stereo unspecified) | > 100 µM | > 100 µM | > 100 µM | > 100 µM | > 100 µM | > 100 µM | > 100 µM | > 100 µM | > 100 µM | > 100 µM |  |  |  |
| CCC(C)c1cccc(C)c1NC(=O)C(=O)Cc1nc2ccccc2s1 (stereo unspecified) | > 100 µM | > 100 µM | > 100 µM | > 100 µM | > 100 µM | > 100 µM | > 100 µM | > 100 µM | > 100 µM | > 100 µM |  |  |  |
| CN(C)CCNC(=O)c1c2ccccc2cc2ccccc12 | > 100 µM | > 100 µM | > 100 µM | > 100 µM | 30.1 µM | > 100 µM | > 100 µM | 80.8 µM | > 100 µM |  |  |  |  |
| CN(C)C(=S)/N=c1\ss/c(=N\C(=S)N(C)C)n1Cc1ccco1 | > 100 µM | > 100 µM | > 100 µM | > 100 µM |  |  | > 100 µM | > 100 µM | > 100 µM | > 100 µM |  |  |  |
| OCC(O)COc1c(Cl)cc(Cl)cc1Cl (stereo unspecified) | > 100 µM | > 100 µM | > 100 µM | > 100 µM | > 74.1 µM | > 100 µM | > 100 µM | > 100 µM | > 100 µM | > 100 µM |  |  |  |
| O=C1CCNC(=O)NC1 | > 100 µM | > 100 µM | > 100 µM | > 100 µM | > 100 µM | > 100 µM | > 100 µM | > 100 µM | > 100 µM | > 100 µM |  |  |  |
| CC#CC#C/C=C1\C=CC2(OC=CC2OC(C)=O)O1 (stereo unspecified) | 65 µM and > 100 µM | > 100 µM and 59.7 µM | 10.2 µM | 34.3 µM | > 100 µM and 31.7 µM | > 100 µM | 45.6 µM | 32.2 µM | > 100 µM | 39.2 µM and 11.1 µM | 14.7 µM and 5.72 µM | 30.8 µM | > 100 µM |
| COC1C(CO)OC(n2c3c(Cl)cccc3c3c4c(c5c6cccc(Cl)c6[nH]c5c32)C(=O)NC4=O)C(O)C1O (stereo unspecified) | 0.479 µM | 19.7 µM | > 100 µM | > 100 µM | 0.289 µM | 4.32 µM | > 100 µM | > 100 µM | 8.2 µM | 10.5 µM |  | 4.86 µM | 12.4 µM |
| CCCCCCCCCCCCCCCC(=O)OCC1OC(OC)C(NC(=O)N(CCCl)N=O)C(O)C1O (stereo unspecified) | 23.1 µM | 63.2 µM | 58.4 µM | 37.9 µM | 17.5 µM | 24.7 µM | 46.4 µM | 37.4 µM | 35.2 µM | 34.7 µM |  | > 100 µM | 99.4 µM |
| CN1C(=O)CCC1c1ccc2c(c1)oc(=O)n2C (stereo unspecified) | > 100 µM | > 100 µM | > 100 µM | > 100 µM | > 100 µM | > 100 µM | > 100 µM | > 100 µM | > 100 µM | > 100 µM |  |  |  |
| O=C1/C(=C/c2ccc(Cl)cc2)CCC1CN1CCOCC1 (stereo unspecified) | 39.2 µM | 18.3 µM | 29.1 µM | 11.3 µM | 5.24 µM | 38.1 µM | 70.2 µM | 6.88 µM | 55.9 µM | 5.15 µM |  | 21 µM | 26 µM |
| O=c1ccn(C2(CO)C=C(CO)C(O)C2O)c(=O)[nH]1 (stereo unspecified) | > 25.7 µM | > 25.7 µM | > 25.7 µM | > 25.7 µM |  |  | > 25.7 µM | > 25.7 µM | > 25.7 µM | > 25.7 µM |  |  |  |
